Experimental findings from patent US20160058712A1, “3-HYDROXYPTEROSTILBENE AND THERAPEUTIC APPLICATIONS THEREOF” (priority 2014, published 2016) are described below.

Experiment [1] deals with PC-3 (Human prostate cancer cell line). Put plainly: MTT cell viability assay, PC-3. In kind it is cell-based. As to the method:
(§1) Cell viability was assayed by 3(4,5-dimethylthiazol-2-yl)-2,5-diphenyltetrazolium bromide (MTT). Briefly. COLO 205, HCT116 and HT29 cells were plated at a density of 2×10^2 cells/mL into 96 well plates. After overnight growth, cells were treated with a series of concentrations of pterostilbene or 3-hydroxypterostilbene for 24 h. The final concentrations of DMSO in the culture medium were <0.05%. At the end of treatment, 0.2% MTT was added and cells were incubated for a further 4 h. Cell viability was determined by scanning with an ELISA reader with a 570 nm filter.
The MTT reaction explained in Para 0040 was also used to assess the cell viability of human prostate cancer cells (PC-3) in the presence of pterostilbene and 3-hydroxypterostilbene. The results (FIG. 1) are represented in Table II.
In general terms: Tetrazolium dyes change colour on reduction, which living cells bring about.

In experiment [2] the test system is PC-3 cells. As to the kind of experiment: Flow cytometry analysis of subG1 cell population in PC-3 cells. In kind it is cell-based, human. The conditions noted are these: PC-3, 0-20 μM, 48 hr. As to the method: PC-3 cells were cultured in serum-free RPMI containing 0, 2.5, 5, 10, or 20 μM of 3-HPT for 48 hr followed by flow cytometric analysis.
(In general: In flow cytometry, cells or beads pass a laser one at a time.)

The test system of experiment [3] is COLO 205 cells. As to the kind of experiment: MTT cell viability assay, COLO 205. In kind it is cell-based. The note with it: Homo sapiens, COLO205, MTT, 24 h. As to the method:
(§2) The human colon cancer cell lines COLO 205, HCT116 and HT29 were purchased from the American Type Culture Collection (Rockville, Md.). Cell lines were grown in RPMI1640 supplemented with 10% heat inactivated fetal bovine serum (GIBCO BRL, Grand Island, N.Y.), 100 units/mL of penicillin, 100 μg/mL of streptomycin), 2 mM L-glutamine (GIBCO BRL, Grand Island, N.Y.), and were kept at 37° C. in a humidified 5% CO2 incubator. Pterostilbene and 3-HPT were dissolved in dimethyl sulfoxide (DMSO, as final concentration of 0.05%). Cells were treated with 0.05% DMSO as vehicle control.
as §1

For the next experiment, the system named is HCT-116 cells. Put plainly: MTT cell viability assay, HCT116. The conditions noted are these: Homo sapiens; HCT-116, MTT, 24 h. In kind it is cell-based. Here is the method: as §2, §1
Experiment [4] deals with COLO 205 cells. Put plainly: Autophagy (acidic vesicular organelles) by acridine orange staining. In kind it is cell-based, human. The conditions noted are these: 24 h. Here is the method:
Autophagy induction in COLO 205 cells treated with 3-HPT and pterostilbene was detected by Acridine Orange (AO) staining. After 24 h treatment, COLO 205 cells were washed with phosphate buffered saline (PBS), suspended in PBS and stained with 1 μg/mL AO of 20 min. Photographs were obtained with a fluorescence microscope (Axioscop, Carl Zeiss, Thomwood, N.Y.) equipped with a mercury 100 W lamp, 490 nm Bandpass blue excitation filters, a 500 nm dichroic mirror and a 515 nm long pass barrier filter. For quantification of AVOs by flow cytometry, cells were treated as described under EXAMPLE II and stained with AO for 15 min and were analyzed by FACScan laser flow cytometer and CellQuest software.

In experiment [5] the test system is PC-3 cells. Put plainly: Detection of autophagy (GFP-LC3 autophagosomes, Beclin-1/LC3 Western blot). In kind it is cell-based, human. The conditions noted are these: PC-3, 10 μM. As to the method: Photographs were obtained with a fluorescence microscope (Axioscop, Carl Zeiss, Thomwood, N.Y.) equipped with a mercury 100 W lamp, 490 nm band pass blue excitation filters, a 500 nm dichroic mirror and a 515 nm long pass barrier filter. The autophagy induced by 3-HPT in PC-3 cells was also further confirmed by the Western Blotting analysis of Beclin-1, LC3-I, LC3-II, Actin protein expression in PC-3 cells after 10 μM 3-HPT treatment at different time intervals (FIG. 9). The following conclusions were drawn based on aforesaid experimental studies. • 1. […] 3-Hydroxypterostilbene induced the intrinsic apoptotic pathway and extrinsic apoptotic pathway in PC-3 cells. • 3. […] 3′-Hydroxypterostilbene has significant therapeutic potential for the treatment of human prostate cancer.

Each structure is given as a SMILES string.

A word on the IC50: it is the concentration needed to halve the response being measured. In the case of `COc1cc(/C=C/c2ccc(O)c(O)c2)cc(OC)c1` [3-hydroxypterostilbene, 3,4-dihydroxy-3′,5′-dimethoxy-trans-stilbene], the 50% inhibitory concentration (IC50) in experiment [1] (Homo sapiens, PC-3, MTT) came to 5 µM; in the experiment with COLO 205 cells [3] it was 9 ± 0.2 µM; in the experiment with HCT-116 cells it was 40.2 ± 0.6 µM. For the same compound, the growth inhibitory effect result in experiment [1] (PC-3 human prostate cancer cells) is given as “strong growth inhibitory effect”. Also, the “percentage of apoptotic cells (subG1)” value in the experiment with PC-3 cells [2] is “increasing percentage of apoptotic cells over increasing concentrations”. Moreover, in the experiment with COLO 205 cells [4] (COLO 205, 50 μM), the “appearance of AVO (fluorescence microscopy)” value is given as “marked appearance of AVO than pterostilbene”. Also, the “red fluorescence of cells with AVOs (flow cytometry)” value in the experiment with COLO 205 cells [4] (COLO 205, 25 and 50 μM) was “significantly increased after treatment with 3-HPT in a dose dependent manner”. The “autophagy (Beclin-1, LC3 expression, autophagosome formation)” value in the experiment on PC-3 cells [5] was “induced autophagic cell death by increasing the Beclin-1, LC3 protein expression and autophagosome formation”.
